# Laboratory results from patent US8680052B1, “Methods of treating, reducing the incidence of, and/or preventing ischemic events” (The Medicines Company, priority 2013, dated 2014).
# Tested on: platelets
# Experiment: Example 4: light transmission aggregometry (LTA) induced by 5 and 20 μM ADP
# Format: in vivo, human
# Experimental: The study involved 12 patients who met the criteria of being 18-75 years of age, having coronary artery disease (CAD) documented by a previous MI or coronary revascularization, and taking 81 mg of aspirin daily. […] Prohibited concomitant medications included strong and potent CYP3A inhibitors, simvastatin and lovastatin at doses more than 40 mg/day, omeprazole or esomeprazole, and digoxin. Use of non-steroidal anti-inflammatory agents was discouraged during study participation but not prohibited.
# Each patient was administered a 30 μg/kg bolus of cangrelor followed immediately by a 2 hr infusion at a rate of 4.0 μg/kg/min. A loading dose of ticagrelor (180 mg) was given after 0.5 hr or 1.25 hr (n=6 for each). Blood for pharmacodynamic platelet function studies was taken after 0.5 or 1.25 hr (corresponding to the time of ticagrelor load, n=6 for each), and then at 1.75, 2, 2.25, 2.5, 2.75, 3, 4, and 5.25 hr. Patients were assigned randomly to receive either 6 (n=6) or 7 (n=6) doses of ticagrelor to be taken every 12 hours following the discontinuation of the infusion of cangrelor. On study day 5, each patient was administered a 30 μg/kg bolus of cangrelor followed immediately by a 2 hr infusion at a rate of 4.0 μg/kg/min. Blood for pharmacodynamic assessment was taken after 1 and 2 hr. Adverse events were queried throughout study participation that ended with a telephone interview performed on study day 10-12.
# Pharmacodynamic assessment included light transmission aggregometry (LTA), VerifyNow® P2Y12 assay, vasodilator-stimulated phosphoprotein (VASP) index, and platelet activation measured with the use of flow cytometry. Assessment of LTA, VerifyNow®, and platelet activation with the use of flow cytometry was performed within 30 min of blood being taken. In the case of flow cytometry, samples were processed to fixation and then batched for analysis. For VASP, index samples were batched and processed as recommended by the vendor within 2 h of blood being taken. This approach limited the time from fixation of VASP index to flow analysis to less than 1 h.
# LTA induced by 5 μM and 20 μM adenosine diphosphate (ADP) was quantified ex vivo (i.e. in non-adjusted platelet rich plasma). Platelet-poor plasma was set as 100% aggregation, and both maximal (peak) and terminal (at 300 s) aggregation were measured with a PAP4 aggregometer (BioData, Horsham, Pa.). VerifyNow® P2Y12 assay (Accumetrics Inc, San Diego, Calif.) that measures the effects of drugs on the P2Y12 receptor by activating platelets with prostaglandin El in addition to ADP was used in accordance with the instructions provided by the manufacturer. Platelet reactivity was expressed in P2Y12 reaction units (PRU). Activation of platelets was identified with the use of flow cytometry as previously described.^17. And to determine the VASP index, a commercially available kit (Diagnostica Stago, Inc, Parsippany NJ) was used. ^17 Schneider D J, Sobel B E. Streamlining the design of promising clinical trials: in-vitro testing of antithrombotic regimens and multiple agonists of platelet activation. Coron Artery Dis. 2009; 20:175-8.
# [1] = reference 5.25 h, Ticagrelor at 0.5 h
# [2] = reference 5.25 h, Ticagrelor at 1.25 h
# [3] = ticagrelor at 0.5 hr, 1.75 hr later (at 2.25 hr)
# [4] = ticagrelor at 1.25 hr, 1.75 hr after the loading dose (at 3.0 hr)
smiles,measurement,setting,value
CCCSc1nc(N[C@@H]2C[C@H]2c2ccc(F)c(F)c2)c2nnn([C@@H]3C[C@H](OCCO)[C@@H](O)[C@H]3O)c2n1 [ticagrelor],"IPA, 5 μM ADP, LTA","2.25 h, All",87 ± 8%
same,"IPA, 20 μM ADP, LTA","2.25 h, All",83 ± 14%
same,"PR, 5 μM ADP, LTA","2.25 h, All",7 ± 5%
same,"PR, 20 μM ADP, LTA","2.25 h, All",12 ± 11%
same,"IPA, 5 μM ADP, LTA","2.25 h, Ticagrelor at 0.5 h",84 ± 10%
same,"IPA, 20 μM ADP, LTA","2.25 h, Ticagrelor at 0.5 h",82 ± 13%
same,"PR, 5 μM ADP, LTA","2.25 h, Ticagrelor at 0.5 h",7.7 ± 5.9%
same,"PR, 20 μM ADP, LTA","2.25 h, Ticagrelor at 0.5 h",13 ± 9.3%
same,"IPA, 5 μM ADP, LTA","2.25 h, Ticagrelor at 1.25 h",89 ± 5%
same,"IPA, 20 μM ADP, LTA","2.25 h, Ticagrelor at 1.25 h",84 ± 17%
same,"PR, 5 μM ADP, LTA","2.25 h, Ticagrelor at 1.25 h",5.3 ± 3.6%
same,"PR, 20 μM ADP, LTA","2.25 h, Ticagrelor at 1.25 h",11 ± 12%
same,"IPA, 5 μM ADP, LTA","2.5 h, All",79 ± 15%
same,"IPA, 20 μM ADP, LTA","2.5 h, All",72 ± 26%
same,"PR, 5 μM ADP, LTA","2.5 h, All",10 ± 7%
same,"PR, 20 μM ADP, LTA","2.5 h, All",19 ± 16%
same,"IPA, 5 μM ADP, LTA","2.5 h, Ticagrelor at 0.5 h",82 ± 13%
same,"IPA, 20 μM ADP, LTA","2.5 h, Ticagrelor at 0.5 h",78 ± 21%
same,"PR, 5 μM ADP, LTA","2.5 h, Ticagrelor at 0.5 h",10 ± 5.7%
same,"PR, 20 μM ADP, LTA","2.5 h, Ticagrelor at 0.5 h",16 ± 15%
same,"IPA, 5 μM ADP, LTA","2.5 h, Ticagrelor at 1.25 h",76 ± 18%
same,"IPA, 20 μM ADP, LTA","2.5 h, Ticagrelor at 1.25 h",65 ± 30%
same,"PR, 5 μM ADP, LTA","2.5 h, Ticagrelor at 1.25 h",11 ± 9%
same,"PR, 20 μM ADP, LTA","2.5 h, Ticagrelor at 1.25 h",21 ± 17%
same,"IPA, 5 μM ADP, LTA","2.75 h, All",86 ± 11%
same,"IPA, 20 μM ADP, LTA","2.75 h, All",86 ± 15%
same,"PR, 5 μM ADP, LTA","2.75 h, All",5.8 ± 3%
same,"PR, 20 μM ADP, LTA","2.75 h, All",10 ± 9.2%
same,"IPA, 5 μM ADP, LTA","2.75 h, Ticagrelor at 0.5 h",87 ± 7%
same,"IPA, 20 μM ADP, LTA","2.75 h, Ticagrelor at 0.5 h",84 ± 15%
same,"PR, 5 μM ADP, LTA","2.75 h, Ticagrelor at 0.5 h",6.7 ± 4.1%
same,"PR, 20 μM ADP, LTA","2.75 h, Ticagrelor at 0.5 h",12 ± 11%
same,"IPA, 5 μM ADP, LTA","2.75 h, Ticagrelor at 1.25 h",85 ± 15%
same,"IPA, 20 μM ADP, LTA","2.75 h, Ticagrelor at 1.25 h",87 ± 15%
same,"PR, 5 μM ADP, LTA","2.75 h, Ticagrelor at 1.25 h",4.8 ± 0.8%
same,"PR, 20 μM ADP, LTA","2.75 h, Ticagrelor at 1.25 h",7.8 ± 7.2%
same,"IPA, 5 μM ADP, LTA","3 h, All",86 ± 17%
same,"IPA, 20 μM ADP, LTA","3 h, All",90 ± 9%
same,"PR, 5 μM ADP, LTA","3 h, All",5.5 ± 5.2%
same,"PR, 20 μM ADP, LTA","3 h, All",7.1 ± 6.3%
same,"IPA, 5 μM ADP, LTA","3 h, Ticagrelor at 0.5 h",85 ± 15%
same,"IPA, 20 μM ADP, LTA","3 h, Ticagrelor at 0.5 h",87 ± 10%
same,"PR, 5 μM ADP, LTA","3 h, Ticagrelor at 0.5 h",8 ± 6.5%
same,"PR, 20 μM ADP, LTA","3 h, Ticagrelor at 0.5 h",10 ± 7.6%
same,"IPA, 5 μM ADP, LTA","3 h, Ticagrelor at 1.25 h",87 ± 21%
same,"IPA, 20 μM ADP, LTA","3 h, Ticagrelor at 1.25 h",93 ± 7%
same,"PR, 5 μM ADP, LTA","3 h, Ticagrelor at 1.25 h",3 ± 1.5%
same,"PR, 20 μM ADP, LTA","3 h, Ticagrelor at 1.25 h",4.5 ± 3.4%
same,"IPA, 5 μM ADP, LTA","4 h, All",88 ± 9%
same,"IPA, 20 μM ADP, LTA","4 h, All",94 ± 4%
same,"PR, 5 μM ADP, LTA","4 h, All",5.5 ± 3.3%
same,"PR, 20 μM ADP, LTA","4 h, All",4.6 ± 3.6%
same,"IPA, 5 μM ADP, LTA","4 h, Ticagrelor at 0.5 h",87 ± 5%
same,"IPA, 20 μM ADP, LTA","4 h, Ticagrelor at 0.5 h",91 ± 4%
same,"PR, 5 μM ADP, LTA","4 h, Ticagrelor at 0.5 h",7.3 ± 3.9%
same,"PR, 20 μM ADP, LTA","4 h, Ticagrelor at 0.5 h",6.7 ± 3.7%
same,"IPA, 5 μM ADP, LTA","4 h, Ticagrelor at 1.25 h",89 ± 12%
same,"IPA, 20 μM ADP, LTA","4 h, Ticagrelor at 1.25 h",96 ± 4%
same,"PR, 5 μM ADP, LTA","4 h, Ticagrelor at 1.25 h",3.7 ± 1%
same,"PR, 20 μM ADP, LTA","4 h, Ticagrelor at 1.25 h",2.5 ± 1.9%
same,residual platelet reactivity,"12 hours after the last dose of ticagrelor, study day 5",12±9%
same,residual platelet reactivity,"at 2.5 hr, ticagrelor 180 mg given at 0.5 hr of 2 hr cangrelor infusion",16±15%
same,"IPA, 5 μM ADP, LTA","reference 5.25 h, All",94 ± 5%
same,"IPA, 20 μM ADP, LTA","reference 5.25 h, All",95 ± 4%
same,"PR, 5 μM ADP, LTA","reference 5.25 h, All",3.1 ± 2.8%
same,"PR, 20 μM ADP, LTA","reference 5.25 h, All",4 ± 3.4%
same,"IPA, 5 μM ADP, LTA",[1],92 ± 6%
same,"IPA, 20 μM ADP, LTA",[1],92 ± 4%
same,"PR, 5 μM ADP, LTA",[1],4.2 ± 2%
same,"PR, 20 μM ADP, LTA",[1],5.8 ± 3.1%
same,"IPA, 5 μM ADP, LTA",[2],97 ± 4%
same,"IPA, 20 μM ADP, LTA",[2],97 ± 4%
same,"PR, 5 μM ADP, LTA",[2],2 ± 2.3%
same,"PR, 20 μM ADP, LTA",[2],2.2 ± 2.7%
same,extent of inhibition,[3],82±13%
same,residual platelet reactivity,[3],13±9.3%
same,extent of inhibition,[4],93±7%
same,residual platelet reactivity,[4],4.5±3.4%
